Reference: patent US9908912B2, “Triclosan derivatives and uses thereof” (priority 2012, dated 2018)
In brackets after ≈: the same amount, converted by molar mass.

Tests used:
Str. pyogenes = assay: MIC in Nutrient Agar; assay type: cell-based, Streptococcus pyogenes; conditions: Nutrient Agar containing 0.1 μg/ml of inducer; 37° C., 24 hours
Protocol: (§1) The triclosan-glycosides were added to Nutrient Agar (Oxoid CM0003; Thermofisher Scientific) and organisms were transferred onto the plates surface using a multi-point inoculation device (Oxoid Cathra, Thermofisher Scientific). The latter is essentially a metal plate containing a number of needles. Each needle tip (usually 36 per plate) dips into an organism suspension (in phosphate buffered saline; PBS) and the needles are then moved over the agar plate and lowered onto its surface. In this way the growth of colonies of up to 36 different organisms can be observed on one plate.
(§2) Nutrient Agar No. 2 was prepared according to the manufacturers instructions, autoclaved and cooled to 50° C. Test compounds were then added as filter sterilised solutions (50:50 deionised water:ethanol), to give final concentrations from 256 μg/ml to 0 μg/ml in doubling dilutions. […] The mixtures were swirled then four plates (25 ml molten agar) were poured for each concentration. Plates were dried in a laminar flow cabinet then inoculated with overnight cultures of organisms that had been decimally diluted twice in sterile saline solution (approximately 10^7 cfu/ml) using a multi-point inoculator. Plates were then incubated at 37° C. for 24 hours. MICs were determined as the concentration at which no growth was observed.

Hafnia alvei = assay: MIC in Nutrient Agar; assay type: cell-based; conditions: Nutrient Agar containing 0.1 μg/ml of inducer; 37° C., 24 hours
Protocol: as §1, §2

Ps. aeruginosa = assay: MIC in Nutrient Agar; assay type: cell-based; conditions: Nutrient Agar containing 0.1 μg/ml of inducer; 37° C., 24 hours
Protocol: as §1, §2

Bacillus cereus = assay: MIC in Nutrient Agar; assay type: cell-based; conditions: Nutrient Agar containing 0.1 μg/ml of inducer; 37° C., 24 hours
Protocol: as §1, §2

Ent. aerogenes = assay: MIC in Nutrient Agar; assay type: cell-based, Enterobacter aerogenes; conditions: Nutrient Agar containing 0.1 μg/ml of inducer; 37° C., 24 hours
Protocol: as §1, §2

Ent. cloacae = assay: MIC in Nutrient Agar; assay type: cell-based, Enterobacter cloacae; conditions: Nutrient Agar containing 0.1 μg/ml of inducer; 37° C., 24 hours
Protocol: as §1, §2

Staph. aureus = assay: MIC in Nutrient Broth No. 2; assay type: cell-based, Staphylococcus aureus; conditions: 8 strains, Nutrient Broth No. 2
Protocol: (§3) Bacteria species as indicated in Table 1 were incubated for approximately 24 hours at 37° C.
(§4) The tests were repeated with the addition of inducers. Methyl glycoside was the main inducer used, but other suitable inducers include isopropyl-β-D-thiogalactopyranoside, p-nitrophenyl-α-L-arabinopyranoside and p-nitrophenyl-β-D-xylopyranoside. Concentration of inducer in all cases was 100 μg/ml.

[1] = test system: Strep. pneumoniae ATCC 6305; assay: MIC in Nutrient Broth No. 2; assay type: cell-based, Streptococcus pneumoniae; conditions: Nutrient Broth No. 2
Protocol: as §3, §4

Kleb. aerogenes = assay: MIC in Nutrient Agar; assay type: cell-based, Klebsiella aerogenes; conditions: Nutrient Agar containing 0.1 μg/ml of inducer; 37° C., 24 hours
Protocol: as §1, §2

Ent. faecalis = assay: MIC in Nutrient Agar; assay type: cell-based, Enterococcus faecalis; conditions: Nutrient Agar containing 0.1 μg/ml of inducer; 37° C., 24 hours
Protocol: as §1, §2

Cr. sakazakii = assay: MIC in Nutrient Agar; assay type: cell-based, Cronobacter sakazakii; conditions: Nutrient Agar containing 0.1 μg/ml of inducer; 37° C., 24 hours
Protocol: as §1, §2

[2] = test system: Staph. saprophyticus ATCC 15305; assay: MIC in Nutrient Broth No. 2; assay type: cell-based, Staphylococcus saprophyticus; conditions: Nutrient Broth No. 2
Protocol: as §3, §4

[3] = test system: Kleb. aerogenes NCTC 88167; assay: MIC in Nutrient Broth No. 2; assay type: cell-based, Klebsiella aerogenes; conditions: Nutrient Broth No. 2
Protocol: as §3, §4

S. saprophyticus = assay: MIC in Nutrient Agar; assay type: cell-based, Staphylococcus saprophyticus; conditions: Nutrient Agar containing 0.1 μg/ml of inducer; 37° C., 24 hours
Protocol: as §1, §2

S. haemolyticus = assay: MIC in Nutrient Agar; assay type: cell-based, Staphylococcus haemolyticus; conditions: Nutrient Agar containing 0.1 μg/ml of inducer; 37° C., 24 hours
Protocol: as §1, §2

S. epidermidis = assay: MIC in Nutrient Agar; assay type: cell-based, Staphylococcus epidermidis; conditions: 3 strains; Nutrient Agar containing 0.1 μg/ml of inducer; 37° C., 24 hours
Protocol: as §1, §2

C. freundii = assay: MIC in Nutrient Agar; assay type: cell-based, Citrobacter freundii; conditions: Nutrient Agar containing 0.1 μg/ml of inducer; 37° C., 24 hours
Protocol: as §1, §2

[4] = test system: Crono. sakazakii ATCC 29544; assay: MIC in Nutrient Broth No. 2; assay type: cell-based, Cronobacter sakazakii; conditions: Nutrient Broth No. 2
Protocol: as §3, §4

Hafnia alvei ATCC 13337 = assay: MIC in Nutrient Broth No. 2; assay type: cell-based; conditions: Nutrient Broth No. 2
Protocol: as §3, §4

[5] = test system: Citrobacter freundii OCC 851; assay: MIC in Nutrient Broth No. 2; assay type: cell-based; conditions: Nutrient Broth No. 2
Protocol: as §3, §4

[6] = test system: Proteus mirabilis ATCC 12453; assay: MIC in Nutrient Broth No. 2; assay type: cell-based; conditions: Nutrient Broth No. 2
Protocol: as §3, §4

Proteus vulgaris OCC 195 = assay: MIC in Nutrient Broth No. 2; assay type: cell-based; conditions: Nutrient Broth No. 2
Protocol: as §3, §4

[7] = test system: Bacillus cereus ATCC 14579; assay: MIC in Nutrient Broth No. 2; assay type: cell-based; conditions: Nutrient Broth No. 2
Protocol: as §3, §4

[8] = test system: Aeromonas hydrophila OCC 778; assay: MIC in Nutrient Broth No. 2; assay type: cell-based; conditions: Nutrient Broth No. 2
Protocol: as §3, §4

[9] = test system: Enterococcus faecalis ATCC 29212; assay: MIC in Nutrient Broth No. 2; assay type: cell-based; conditions: Nutrient Broth No. 2
Protocol: as §3, §4

[10] = test system: Enterococcus faecium ATCC 19434; assay: MIC in Nutrient Broth No. 2; assay type: cell-based; conditions: Nutrient Broth No. 2
Protocol: as §3, §4

Escherichia coli = assay: MIC in Nutrient Broth No. 2; assay type: cell-based; conditions: 8 strains, Nutrient Broth No. 2
Protocol: as §3, §4

[11] = test system: Enterobacter aerogenes ATCC 13048; assay: MIC in Nutrient Broth No. 2; assay type: cell-based; conditions: Nutrient Broth No. 2
Protocol: as §3, §4

Salmonella = assay: MIC in Nutrient Broth No. 2; assay type: cell-based; conditions: 11 strains, Nutrient Broth No. 2
Protocol: as §3, §4

[12] = test system: Serratia marcescens OCC 217; assay: MIC in Nutrient Broth No. 2; assay type: cell-based; conditions: Nutrient Broth No. 2
Protocol: as §3, §4

[13] = test system: Ps. Aeruginosa ATCC 27853; assay: MIC in Nutrient Broth No. 2; assay type: cell-based; conditions: Nutrient Broth No. 2
Protocol: as §3, §4

[14] = test system: Bacillus subtilis NCTC 10073; assay: MIC in Nutrient Broth No. 2; assay type: cell-based; conditions: Nutrient Broth No. 2
Protocol: as §3, §4

Ent. cloacae ATCC 13047 = assay: MIC in Nutrient Broth No. 2; assay type: cell-based, Enterobacter cloacae; conditions: Nutrient Broth No. 2
Protocol: as §3, §4

## O[C@@H]1[C@H](Oc2cc(Cl)ccc2Oc2ccc(Cl)cc2Cl)OC[C@@H](O)[C@H]1O [β-D-Arabinoside, triclosan-β-D-arabinopyranoside]
Str. pyogenes
  MIC: 64 µg/mL (≈ 152 µM)
Hafnia alvei
  MIC: 8 µg/mL (≈ 19 µM)
Ps. aeruginosa
  MIC: >256 µg/mL
Bacillus cereus
  MIC: 256 µg/mL (≈ 607 µM)
Ent. aerogenes
  MIC: 64 µg/mL (≈ 152 µM)
Ent. cloacae
  MIC: 16 µg/mL (≈ 37.9 µM)
Staph. aureus; with inducer 100 μg/ml
  MIC: 4 to 8 µg/mL
Staph. aureus; without inducer
  MIC: 4 to 8 µg/mL
[1]; with inducer 100 μg/ml
  MIC: 64 µg/mL (≈ 152 µM)
[1]; without inducer
  MIC: 64 µg/mL (≈ 152 µM)
Kleb. aerogenes
  MIC: 64 µg/mL (≈ 152 µM)
Ent. faecalis
  MIC: 256 µg/mL (≈ 607 µM)
Cr. sakazakii
  MIC: 256 µg/mL (≈ 607 µM)
[2]; with inducer 100 μg/ml
  MIC: 64 µg/mL (≈ 152 µM)
[2]; without inducer
  MIC: 64 µg/mL (≈ 152 µM)
[3]; with inducer 100 μg/ml
  MIC: 32 µg/mL (≈ 75.9 µM)
[3]; without inducer
  MIC: 32 µg/mL (≈ 75.9 µM)
S. saprophyticus
  MIC: 64 µg/mL (≈ 152 µM)
S. haemolyticus
  MIC: 16 µg/mL (≈ 37.9 µM)
S. epidermidis
  MIC: 16 µg/mL (≈ 37.9 µM)
C. freundii
  MIC: 64 µg/mL (≈ 152 µM)
[4]; with inducer 100 μg/ml
  MIC: 64 µg/mL (≈ 152 µM)
[4]; without inducer
  MIC: 128 µg/mL (≈ 304 µM)
Hafnia alvei ATCC 13337; with inducer 100 μg/ml
  MIC: 4 µg/mL (≈ 9.49 µM)
Hafnia alvei ATCC 13337; without inducer
  MIC: 4 µg/mL (≈ 9.49 µM)
[5]; with inducer 100 μg/ml
  MIC: 64 µg/mL (≈ 152 µM)
[5]; without inducer
  MIC: 64 µg/mL (≈ 152 µM)
[6]; with inducer 100 μg/ml
  MIC: 16 µg/mL (≈ 37.9 µM)
[6]; without inducer
  MIC: 32 µg/mL (≈ 75.9 µM)
Proteus vulgaris OCC 195; with inducer 100 μg/ml
  MIC: 64 µg/mL (≈ 152 µM)
Proteus vulgaris OCC 195; without inducer
  MIC: 128 µg/mL (≈ 304 µM)
[7]; with inducer 100 μg/ml
  MIC: 128 µg/mL (≈ 304 µM)
[7]; without inducer
  MIC: 128 µg/mL (≈ 304 µM)
[8]; with inducer 100 μg/ml
  MIC: >256 µg/mL
[8]; without inducer
  MIC: >256 µg/mL
[9]; with inducer 100 μg/ml
  MIC: 256 µg/mL (≈ 607 µM)
[9]; without inducer
  MIC: 256 µg/mL (≈ 607 µM)
[10]; with inducer 100 μg/ml
  MIC: 256 µg/mL (≈ 607 µM)
[10]; without inducer
  MIC: 256 µg/mL (≈ 607 µM)
Escherichia coli; with inducer 100 μg/ml
  MIC: 4 to 32 µg/mL
Escherichia coli; without inducer
  MIC: 8 to 32 µg/mL
[11]; with inducer 100 μg/ml
  MIC: 64 µg/mL (≈ 152 µM)
[11]; without inducer
  MIC: 128 µg/mL (≈ 304 µM)
Salmonella; with inducer 100 μg/ml
  MIC: 32 to 64 µg/mL
Salmonella; without inducer
  MIC: 32 to 64 µg/mL
[12]; with inducer 100 μg/ml
  MIC: >256 µg/mL
[12]; without inducer
  MIC: >256 µg/mL
[13]; with inducer 100 μg/ml
  MIC: >256 µg/mL
[13]; without inducer
  MIC: >256 µg/mL
[14]; with inducer 100 μg/ml
  MIC: 128 µg/mL (≈ 304 µM)
[14]; without inducer
  MIC: 128 µg/mL (≈ 304 µM)
Ent. cloacae ATCC 13047; with inducer 100 μg/ml
  MIC: 16 µg/mL (≈ 37.9 µM)
Ent. cloacae ATCC 13047; without inducer
  MIC: 16 µg/mL (≈ 37.9 µM)
